≈ marks a conversion by molar mass, not a printed value. Where “and” joins values, the source holds several entries; their conditions need not be identical. Identical values can stand only once. Like-named read-outs stand apart in the source and are kept apart here. Marks after values point to notes of the source that are not given here.
Assays:
2.2.15 cells = test: HBV cytotoxicity assay, neutral red dye uptake in 2.2.15 cells; assay type: cell-based; conditions: Homo sapiens, read-out: IC50 (toxicity, neutral red dye uptake)
Experimental: The toxicity of the test compounds in cultures of 2.2.15 cells, grown to confluence in 96-well flat-bottomed tissue culture plates and treated with compounds as described above, were assayed at four concentrations each in triplicate cultures, in 3 to 10-fold steps. Untreated control cultures were maintained on each plate. On each plate, wells containing no cells were used to correct for light scattering.
Stock solutions of text drugs were prepared in DMSO.

[1] = tested on: Influenza A (H1N1) Texas/36/91; test: microbe, parasite or virus in culture; assay type: cell-based, influenza A virus; conditions: Influenza A virus, MDCK; Influenza A (H1N1) Texas/36/91; read-out: Neutral Red EC50
Adenovirus Type 5 = test: microbe, parasite or virus in culture; assay type: cell-based; conditions: Human mastadenovirus C, A549, read-out: CPE Inhibition EC50
[2] = tested on: Parainfluenza Type 3 Virus; test: organism not typed; assay type: cell-based; conditions: MA104; Parainfluenza Type 3 Virus; read-out: CPI Inhibition EC50
[3] = tested on: Parainfluenza Type 3 Virus; test: organism not typed; assay type: cell-based; conditions: MA104, read-out: Neutral Red EC50
HIV-1 RT = target: T1, HIV-1 RT (Human immunodeficiency virus type 1 group M subtype B, UniProt P03366); test: Anti-HIV-1 RT assay (recombinant enzyme); assay type: biochemical
T1 construct: made in house; host or cells: Escherichia coli

[4] = tested on: Influenza A (A/NWS/33 (H1N1)); test: Influenza A virus infection in mice; assay type: in vivo, BALB/c mice
Experimental: Animals: Female 13-15 g specific pathogen-free BALB/c mice were obtained form Simonsen Laboratories (Gilroy, Calif.). They were quarantined 24 h prior to use, and maintained on Wayne Lab Blox and tap water. After being infected, their drinking water contained 0.006% oxytetracycline (Pfizer, New York, N.Y.) to control possible secondary bacterial infections.
Virus: A/NWS/33 (H1N1) was obtained from K. W. Cochran, Univ. of Michigan (Ann Arbor, Mich.). A virus pool was prepared in MDCK cells; this was titrated in mice, ampuled, and stored at −80° C. until used.
Compounds: Robustaflavone was stored at room temperature until used. Ribavirin, used as a positive control, was obtained from ICN Pharmaceuticals (Costa Mesa, Calif.). Vehicles considered included DMSO (Sigma Chemical Co., St. Louis, Mo.), DMF (Sigma), PEG M. W. 200 (Aldrich Chemical Co. Milwaukee, Wis.), 0.4% CMC (Sigma) and 1-methyl-2-pyrrolidinone (MPD, Aldrich).
Arterial Oxygen Saturation (SaO2) Determinations: SaO2 was determined using the Ohmeda Blox 3740 pulse oximeter (Ohmeda, Louisville, Ohio)). The ear probe attachment was used, the probe placed on the thigh of the animal, with the slow instrument mode selected. Readings were made after a 30 second stabilization time on each animal. Use of this device for measuring effects of influenza virus on arterial oxygen saturation have been described.^72
Lung Virus Determinations: Each mouse lung was homogenized and varying dilutions assayed in triplicate for infectious virus in MDCK cells as described previously.^73
4. Effect of robustaflavone in CMC or in DMSO on influenza virus infection in mice. In the study with CMC, robustaflavone was used in dosages of 200 and 100 mg/kg/day; using DMSO vehicle, the dosages were 75 and 37.5 mg/kg/day, with the compound administered i.p. twice daily for 5 days beginning 4 h pre-virus exposure. The mice were used in each dose to monitor effects on SaO2 and death; from an additional group of similarly infected and treated mice, 3 animals were killed on days 3, 5, 7 and 9 to assay for lung score (0=normal, 4=maximal consolidation), weight, and virus titer. Three to four mice were used as toxicity controls, which were weighed prior to treatment and again 18 h after treatment termination, and deaths noted daily. […] Three sets of virus controls were used: Infected-untreated, infected-treated with CMC only, and infected-treated with DMSO only. Twenty animals were used in each of these control groups to monitor SaO2 and death, with 3 additional mice taken in parallel with treated animals to determine effects on lung consolidation and virus titer. Two sets of normal controls were used; one group of three mice was weighed and held in parallel with the toxicity controls. From the second group three mice were killed on days 3 and 9 for comparison of lung score and weight.
Statistical Evaluation: Increase in survivor number was evaluated using chi square analysis with Yates' correction. Mean survival time increases, virus titer and SaO2 value differences were analyzed by t-test. Lung consolidation scores were evaluated by ranked sum analysis.

[5] = tested on: Madin Darby canine kidney (MDCK) cells; conditions: Influenza A (H3N2) test
in vitro = conditions: African green monkey
HCMV = HCMV CPE inhibition in HFF cells
HSV-1 = HSV-1 CPE inhibition in HFF cells; conditions: for HSV-1 SI (CC50/EC50): HFF Cells
[6] = Cytotoxicity by neutral red dye uptake, MA-104 cells; conditions: African green monkey, Neutral Red IC50 (cytotoxic)
Hepatitis B Virus (HBV) = test: Inhibition of HBV replication in 2.2.15 cells, extracellular (virion) HBV DNA; conditions: for EC90: 2.2.15 cells; for SI (CC50/EC90), HBV Virion: selective index;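 on all read-outs here: extracellular virion HBV DNA in culture medium measured by slot blot hybridization with a 32P-labeled HBV probe, quantified against HBV DNA standards, after 9 days of daily dosing, compared with day 0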
[7] = robustaflavone in 0.4% CMC, 200 mg/kg/day i.p. bid × 5
[8] = robustaflavone in 0.4% CMC, 1005 mg/kg/day (so in the source) i.p. bid × 5
[9] = robustaflavone in DMSO, 37.5 mg/kg/day i.p. bid × 5
[10] = robustaflavone in DMSO, 75 mg/kg/day i.p. bid × 5

O=c1cc(-c2ccc(O)c(-c3c(O)cc4oc(-c5ccc(O)cc5)cc(=O)c4c3O)c2)oc2cc(O)cc(O)c12 [Robustaflavone (3), robustaflavone]
IC50 (2.2.15 cells): 337 µM | EC50 [1]: 2 µg/mL (≈ 3.71 µM) | EC50 (Adenovirus Type 5): > 100 µg/mL | EC50 [2]: > 100 µg/mL | EC50 [3]: 39 µg/mL (≈ 72.4 µM) | IC50 (HIV-1 RT; Anti-HIV-1 RT IC50, values in parentheses or in words): 65 µM | IC50 (HIV-1 RT; HIV-1 RT IC50 (50% inhibition dose)): 62.6 µM and 65.4 µM | inhibition at 200 µg/mL (HIV-1 RT; read-out: Anti-HIV-1 RT % Inhibition at 200 μg/ml): 91.4% | Infected, Treated MST [4, 7]: 11.1 days | Infected, Treated Mean SaO2 [4, 7]: 84.6% | Infected, Treated Surv/Total [4, 7]: 0/9 | Infected, Treated MST [4, 8]: 9.8 days | Infected, Treated Mean SaO2 [4, 8]: 85.1** % | Infected, Treated Surv/Total [4, 8]: 0/10 | Infected, Treated MST [4, 9]: 8.0 days | Infected, Treated Mean SaO2 [4, 9]: 73.8% | Infected, Treated Surv/Total [4, 9]: 0/10 | Infected, Treated MST (mean survival time) [4, 10]: 3.2 days | Infected, Treated Mean SaO2 (mean of days 3-10) [4, 10]: 70.6% | Infected, Treated Surv/Total ([4]; robustaflavone in DMSO, 75 mg/kg/day i.p. bid × 5 beg −4 h pre-virus): 0/9 | CPE Inhibition IC50 (cytotoxic) [5]: ˜32 ug/mL | IC50 (in vitro; CPE Inhibition IC50 (cytotoxic), Respiratory Syncytial Virus test): 56 µg/mL (≈ 104 µM) | IC50 (in vitro; CPI Inhibition IC50 (cytotoxic), Parainfluenza Type 3 Virus test): 56 µg/mL (≈ 104 µM) | HCMV SI (CC50/EC50) (HCMV; HFF Cells): >1.8 | EC50 (HCMV; Human betaherpesvirus 5, HFF, read-out: HCMV CPE Inhibition EC50): 54.8 µg/mL (≈ 102 µM) | HSV-1 SI (CC50/EC50) (HSV-1; listed as Robustaflavone(3)): >11.6 | HSV-1 SI (CC50/EC50) (HSV-1; listed as robustaflavone (3)): > 11.6 | EC50 (HSV-1; Human alphaherpesvirus 1, HFF, read-out: HSV-1 CPE Inhibition EC50): 8.6 µg/mL (≈ 16 µM) | IC50 ([6]; Parainfluenza Type 3 Virus test): 79 µg/mL (≈ 147 µM) | IC50 ([6]; Respiratory Syncytial Virus test): ~100 µg/mL (≈ 186 µM) | EC50 (Hepatitis B Virus (HBV); Hepatitis B virus, read-out: EC50, concentration necessary to decrease HBV DNA levels by 50%, 2.2.15 cells, combinations: with respect to RF): 0.25 µM | EC90 (Hepatitis B Virus (HBV); read-out: EC90 (90% effective dose), HBV Virion, extracellular (virion) HBV DNA, 9 days treatment): 2.4 µM | EC90 (Hepatitis B Virus (HBV); read-out: EC90 (90% effective dose), HBV Virion, extracellular (virion) HBV DNA, 9 days treatment, listed as Robustaflavone): 2.2 µM | EC90 (Hepatitis B Virus (HBV); read-out: EC90, concentration necessary to decrease HBV DNA levels by 90%, combinations: with respect to RF): 2.2 µM | SI (CC50/EC90), HBV Virion (Hepatitis B Virus (HBV)): 153 | SI (CC50/EC90), HBV Virion (Hepatitis B Virus (HBV); listed as Robustaflavone): 153 | SI (CC50/EC90), HBV Virion (Hepatitis B Virus (HBV); listed as robustaflavone): 153
